Results from EP0306649A1, “3,5-Dihydroxycarboxylic acids and their derivatives, processes for their preparation, their use as medicaments, pharmaceutic preparations and intermediate products” (HOECHST AKTIENGESELLSCHAFT, priority 1987, dated 1989).
Like-named read-outs stand apart in the source and are kept apart here.

Experiments:
[1] = rat; cited from earlier work
[2] = human trial; cited from earlier work
Cholesterin-Biosynthese = experiment: Inhibition of cholesterol biosynthesis in cell culture by 14C precursor incorporation into cholesterol; assay type: cell-based; settings: HEP G2-Zellen monolayers in lipoprotein-free medium; 1 h preincubation, then 3 h with 14C-Natriumacetat; potency relative to Mevinolin tested in the same way
Excerpt: 2) Prüfung auf Cholesterin-Biosynthese-Hemmung in Zellkulturen durch ¹⁴-Präkursoreinbau in Cholesterin.
Monolayers von HEP G2-Zellen in lipoproteinfreiem Nährmedium wurden mit entsprechenden Konzentrationen der Prüfsubstanzen 1 Stunde vorinkubiert; nach Zugabe des ¹⁴C-markierten Präkursors ¹⁴C-Natriumacetat wurde die Inkubation für 3 Stunden fortgesetzt. Danach wurde ein Teil der Zellen alkalisch verseift bei vorheriger Zugabe eines internen Standards von ³H-Cholesterin. Die Lipide der verseiften Zellen wurden mit Chloroform-Methanol extrahiert. Dieses Lipidgemisch wurde nach Zusatz von Träger-Cholesterin präparativ dünnschichtchromatographisch getrennt, die Cholesterin-Bande nach dem Sichtbarmachen mit Jod-Dämpfen isoliert und die aus dem ¹⁴C-Präkursor gebildete Menge ¹⁴C-Cholesterins szintigraphisch bestimmt. In einem aliquoten Teil der Zellen wurde Zellprotein bestimmt, sodaß die in der Zeiteinheit/mg Zellprotein aus ¹⁴C-Präkursor gebildete Menge ¹⁴C-Cholesterins berechnet werden kann. Zum Vergleich für die Hemmwirkung eines zugesetzten Prüfpräparates diente die Lösungsmittelkontrolle, sodaß direkt die Hemmung der Cholesterin-Biosynthese bei einer bestimmten molaren Konzentration des Prüfpräparates im Medium angegeben werden kann. […]

SMILES | cholesterinsenkende Wirkung [1] | cholesterinsenkende Wirkung [2] | relative Weinstärke zu Mevinolin (Cholesterin-Biosynthese) [%]
CC(O)(CC(=O)O)CC(=O)O [3-Hydroxy-3-methyl-glutarsäure] | signifikante cholesterinsenkende Wirkung | signifikante cholesterinsenkende Wirkung | –
CC(C)C(CCC(O)CC(O)CC(=O)[O-])=C(c1ccc(F)cc1)c1ccc(F)cc1.[Na+] (stereo not shown) [Beispiel 11n, 3,5-Dihydroxy-9,9-di-(4-flurophenyl)-8-isopropyl-8-nonensäure-Natriumsalz] | – | – | 30
CC(C)C(C=CC(O)CC(O)CC(=O)[O-])=C(c1ccc(F)cc1)c1ccc(F)cc1.[Na+] (stereo not shown) [Beispiel 11a, 9,9-Di-(4-fluorphenyl)-3,5-dihydroxy-8-isopropyl-6,8-nonadiensäure Natriumsalz] | – | – | 100
